The text below walks through data of PMC9266460, “KSK-74: Dual Histamine H3 and Sigma-2 Receptor Ligand with Anti-Obesity Potential” (International Journal of Molecular Sciences, 2022).

Assay [1] has as its system rats fed a palatable diet. The assay can be described thus: Model of excessive eating: body weight, calorie intake, fat pads. Type of assay: in vivo, female Wistar rats. To be noted: for body weight during administration (time course): 10 mg/kg i.p. daily, persisted until the 28th day; for amount of peritoneal fat pads vs palatable diet + vehicle: KSK 10 mg/kg, end of experiment; for amount of peritoneal fat pads vs palatable diet + vehicle / body weight gain vs palatable diet + vehicle: phentermine 7 mg/kg; for calorie intake vs control group fed palatable feed: i.p. 28 days, KSK 10 mg/kg b.w., phentermine 7 mg/kg b.w.; for body weight vs palatable diet + vehicle / body weight gain vs palatable diet + vehicle: i.p. daily 4 weeks; for body weight vs palatable diet + vehicle: 1 mg/kg; for body weight gain vs palatable diet + vehicle: KSK-60/KSK-74 10 mg/kg b.w. As for the experimental part:
Experiments were performed on female Wistar rats with an initial body weight of 140–160 g. The animals were housed in plastic cages (2 rats per cage) at a constant room temperature of 22 ± 2 °C, with a 12:12 h light/dark cycle. Water and food were available ad libitum. The randomly established experimental groups consisted of 6 rats for pharmacological studies and 3 rats for pharmacokinetic studies. All experiments were conducted in accordance with the Guide to the Care and Use of Experimental Animals, and were approved by the Jagiellonian University in Krakow Local Ethics Committee for Experiments on Animals (Permission No: 185/2017, 220/2019 and 223A/2019).
Female rats were randomly divided into several groups (n = 6) and studied for 4 weeks. The groups were as follows: standard diet + vehicle, palatable diet + vehicle, palatable diet + KSK-60 (1 mg/kg), palatable diet + KSK-60 (10 mg/kg), palatable diet + KSK-74 (1 mg/kg), palatable diet + KSK-74 (10 mg/kg), palatable diet + phentermine (7 mg/kg).
The studies for the 1 mg/kg b.w. and 10 mg/kg b.w. doses were performed at different times, so the parameters studied were compared to the respective control groups.
Rats fed a palatable diet had access to a diet consisting of milk chocolate with nuts, cheese, salted peanuts, and 7% condensed milk, and simultaneously to a standard feed (Labofeed B, Morawski Manufacturer Feed, Poland) for 4 weeks. The water was available ad libitum. Animals had access to palatable products, but also to the standard feed. Most importantly, feeding was not in any way forced, as in other models where animals were fed only a high-fat diet, or temporarily deprived of food (binge eating models). In the case of our model, rats decided themselves when, what, and how much to eat. The weight was evaluated daily. Calorie intake was evaluated three times a week. A palatable diet contained 100 g of peanuts—612 kcal; 100 mL of condensed milk—131 kcal; 100 g of milk chocolate—529 kcal; and 100 g of cheese—325 kcal. The standard diet contained 100 g of feed—280 kcal. Standard diet (fats 8%, carbohydrates 67%, proteins 25%) contained 100 g feed—280 kcal.
The palatable control group (palatable diet + vehicle) received vehicle (1% Tween 80 i.p., daily, for 4 weeks), while palatable test groups were injected i.p. with KSK-60 (1 mg or 10 mg/kg i.p, daily, for 4 weeks), KSK-74 (1 mg/kg or 10 mg/kg i.p, daily, for 4 weeks), or phentermine (7 mg/kg i.p., daily, for 4 weeks), respectively.
On the 31st day, 20 min after i.p. administration of heparin (5000 units/rat) and thiopental (70 mg/kg b.w.), animals were sacrificed, and plasma as well as peritoneal fat pads were collected (food was stopped for 6 h prior to organ, tissue, and plasma collection) for further study.

The test system of another assay is adipose tissue. The assay can be described thus: Histological examination of adipose tissue (Masson's trichrome). The following applies: palatable diet; for inflammatory infiltrates in adipose tissue (histological description) / number of adipocytes per 0.1 mm^2 of cross-sectional area / inflammatory index of the adipose tissue: KSK 10 mg/kg, phentermine 7 mg/kg; for number of adipocytes per 0.1 mm^2 of cross-sectional area: means ± SD, n = 6; for inflammatory index of the adipose tissue: standard diet + vehicle 0.5 ± 0.34. The class given is in vivo, female Wistar rats. The procedure:
Adipose tissue samples were prepared for histology using Masson’s trichrome stain (Merck) by fixation in 4% formaldehyde, dehydration in graded alcohol, and embedded in paraffin. The tissue samples were then sectioned using a microtome of 5 μm thickness. Six random fields from each section were analyzed in a blinded manner with an Olympus BX41 light microscope (Olympus, Tokyo, Japan) at magnifications of ×20, ×40 and ×100, and digital images were captured with an Olympus UC90 color camera. The quantitation of the number of adipocytes was performed in eight fields/slide with ×100 objective using an image analysis system: CellSensDimension (Olympus, Tokyo, Japan). The numerical density of the adipocytes was obtained by counting the total number of adipocytes per high-power field ([…]), and then this number was converted to 0.1 mm^2. According to stereometric rules, adipocytes tangent to the left and top edges of the image field were not counted. A semi-quantitative scale was used to assess the inflammatory response in adipose tissue. The following were evaluated on a subjective scale: inflammatory cell infiltration between adipocytes (0—normal, 1—few cells, 2—local clusters, and 3—extensive infiltrates), perivascular infiltration of immune cells (0—normal, 1—few cells, and 2—ring of inflammatory cells), widening of the septum (0—normal and 1—widening), and capillary congestion (0—normal and 1—congestion). A sum calculated from independently assessed values was calculated for each animal as an index of inflammation.

Regarding `CCC(=O)c1ccc(OCCCCCCN2CCN(c3ccncc3)CC2)cc1` [KSK-60], in assay [1], the “body weight during administration (time course)” value was “significant inhibition of body weight gain around the 10th day”, the “amount of peritoneal fat pads vs palatable diet + vehicle” value is listed as “fewer peritoneal fat pads”, the “calorie intake vs control group fed palatable feed” value is “did not significantly influence the amount of calories consumed” and the “body weight vs palatable diet + vehicle” value was “No differences in body weight”. Moreover, in assay [1], the “body weight gain vs palatable diet + vehicle” value is reported as “gained significantly less weight”. Besides, in the assay on adipose tissue, the “inflammatory infiltrates in adipose tissue (histological description)” value is “Many inflammatory cells infiltrated the area of adipocytes and the perivascular area”; the “number of adipocytes per 0.1 mm^2 of cross-sectional area” value came to 18.02 ± 1.38 per 0.1 mm^2; the “inflammatory index of the adipose tissue” value is recorded as 4.5 ± 0.80. In addition, in the assay with adipose tissue (n = 6 per group), the “number of rats, Capillary Congestion grade 0-Normal” value is listed as 2; the “number of rats, Capillary Congestion grade 1-Congestion” value was determined as 4; the “number of rats, Inflammatory Cell Infiltration grade 1-Few Cells” value was found to be 2; the “number of rats, Inflammatory Cell Infiltration grade 2-Local Clusters” value is on record as 4. In addition, in the assay on adipose tissue (n = 6 per group), the “number of rats, Perivascular Infiltration grade 1-Few Cells” value is listed as 2; the “number of rats, Perivascular Infiltration grade 2-Ring of Cells” value turned out to be 4; the “number of rats, Widening of the Septum grade 0-Normal” value is on record as 1; the “number of rats, Widening of the Septum grade 1-Widening” value worked out at 5.
On to `CCC(=O)c1ccc(OCCCCCCCCN2CCN(c3ccncc3)CC2)cc1` [KSK-74], for which, in assay [1] (10 mg/kg b.w.), the “milk intake vs control group fed palatable feed” value is “consumed significantly less milk in the first and second weeks”; the “peanuts intake vs control group fed palatable feed” value is “significantly less peanuts in the fourth week”. In assay [1], the “body weight during administration (time course)” value is recorded as “significant inhibition of body weight gain around the 10th day”, the “amount of peritoneal fat pads vs palatable diet + vehicle” value is “fewer fat pads”, the “calorie intake vs control group fed palatable feed” value is given as “did not significantly influence the amount of calories consumed” and the “body weight vs palatable diet + vehicle” value is reported as “No differences in body weight”. Further, in assay [1], the “body weight gain vs palatable diet + vehicle” value is listed as “gained significantly less weight”. In the assay on adipose tissue, the “inflammatory infiltrates in adipose tissue (histological description)” value was “slightly less inflammatory infiltrates”, the “number of adipocytes per 0.1 mm^2 of cross-sectional area” value came out at 34.78 ± 4.78 per 0.1 mm^2 and the “inflammatory index of the adipose tissue” value is reported as “comparable to the standard control”. Further, in the assay with adipose tissue (n = 6 per group), the “number of rats, Capillary Congestion grade 0-Normal” value was found to be 5; the “number of rats, Capillary Congestion grade 1-Congestion” value is 1; the “number of rats, Inflammatory Cell Infiltration grade 0-Normal” value worked out at 1; the “number of rats, Inflammatory Cell Infiltration grade 1-Few Cells” value was found to be 3. Further, in the assay on adipose tissue (n = 6 per group), the “number of rats, Inflammatory Cell Infiltration grade 2-Local Clusters” value amounted to 2; the “number of rats, Perivascular Infiltration grade 0-Normal” value worked out at 2; the “number of rats, Perivascular Infiltration grade 1-Few Cells” value worked out at 1; the “number of rats, Perivascular Infiltration grade 2-Ring of Cells” value was 3. Moreover, in the assay with adipose tissue (n = 6 per group), the “number of rats, Widening of the Septum grade 0-Normal” value stood at 3 and the “number of rats, Widening of the Septum grade 1-Widening” value was 3.
